# Source: PubChem BioAssay AID248 (DTP/NCI, 2004)
# Toxic doses and inconclusive results are not listed.
# Tested on: L1210 leukemia ip in BDF1 mice, survival T/C
# Assay: NCI In Vivo Anticancer Drug Screen. Data for tumor model L1210 Leukemia (intraperitoneal) in B6D2F1 (BDF1) mice
# Conditions: endpoint: mean survival time, higher = longer survival
# Outline: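 Tumor cells were implanted, animals were treated, and survival was followed. The result divides the treated measurement by the vehicle-control measurement.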
# [1] = dose: 100.0 mg/kg/injection, schedule: Q04DX003 (ip), vehicle: Klucel (hydroxypropylcellulose) (HPC)
# [2] = dose: 200.0 mg/kg/injection, schedule: Q01DX001 (ip), vehicle: carboxymethylcellulose (CMC)
# [3] = dose: 400.0 mg/kg/injection, schedule: Q01DX001 (ip), vehicle: carboxymethylcellulose (CMC)
# [4] = dose: 100.0 mg/kg/injection, schedule: Q01DX001 (ip), vehicle: carboxymethylcellulose (CMC)
# [5] = dose: 100.0 mg/kg/injection, schedule: Q01DX009 (ip), vehicle: Klucel (hydroxypropylcellulose) (HPC)
# [6] = dose: 200.0 mg/kg/injection, schedule: Q01DX009 (ip), vehicle: Klucel (hydroxypropylcellulose) (HPC)
# [7] = dose: 200.0 mg/kg/injection, schedule: Q04DX003 (ip), vehicle: Klucel (hydroxypropylcellulose) (HPC)
# [8] = dose: 400.0 mg/kg/injection, schedule: Q01DX009 (ip), vehicle: Klucel (hydroxypropylcellulose) (HPC)
# [9] = dose: 400.0 mg/kg/injection, schedule: Q04DX003 (ip), vehicle: Klucel (hydroxypropylcellulose) (HPC)
smiles,measurement,setting,value
CCC#CC(=O)OCC,T/C,"dose: 100.0 mg/kg/injection, schedule: Q04DX002 (ip), vehicle: saline",108 % of control
same,T/C,"dose: 200.0 mg/kg/injection, schedule: Q04DX002 (ip), vehicle: saline",97 % of control
same,T/C,"dose: 400.0 mg/kg/injection, schedule: Q04DX002 (ip), vehicle: saline",105 % of control
CN(C)/N=N/c1[nH]ncc1C(N)=O,T/C,"dose: 100.0 mg/kg/injection, schedule: Q01DX001 (ip), vehicle: saline",113 % of control
same,T/C,"dose: 108.0 mg/kg/injection, schedule: Q01DX009 (ip), vehicle: saline",176 % of control
same,T/C,"dose: 300.0 mg/kg/injection, schedule: Q01DX009 (ip), vehicle: saline",110 % of control
same,T/C,"dose: 600.0 mg/kg/injection, schedule: Q01DX001 (ip), vehicle: saline",156 % of control
CC1C(=O)OC2CC[N+]3(C(C)C)CC=C(COC(=O)C(C)(O)C1(C)O)C23 (stereo not drawn),T/C,"dose: 50.0 mg/kg/injection, schedule: Q01DX009 (ip), vehicle: saline",100 % of control
same,T/C,"dose: 100.0 mg/kg/injection, schedule: Q01DX009 (ip), vehicle: saline",106 % of control
same,T/C,"dose: 200.0 mg/kg/injection, schedule: Q01DX009 (ip), vehicle: saline",106 % of control
CCc1ccc(N)cc1,T/C,"dose: 10.0 mg/kg/injection, schedule: Q01DX001 (ip), vehicle: saline",102 % of control
same,T/C,"dose: 20.0 mg/kg/injection, schedule: Q01DX001 (ip), vehicle: saline",102 % of control
same,T/C,"dose: 40.0 mg/kg/injection, schedule: Q01DX001 (ip), vehicle: saline",111 % of control
CN(C)C(=S)SCC(=O)c1ccccc1,T/C,"dose: 2.5 mg/kg/injection, schedule: Q01DX009 (ip), vehicle: saline with Tween-80",93 % of control
same,T/C,"dose: 5.0 mg/kg/injection, schedule: Q01DX009 (ip), vehicle: saline with Tween-80",89 % of control
same,T/C,"dose: 10.0 mg/kg/injection, schedule: Q01DX009 (ip), vehicle: saline with Tween-80",105 % of control
CCCCn1cnc(=S)c2[nH]cnc21,T/C,"dose: 50.0 mg/kg/injection, schedule: Q04DX003 (ip), vehicle: Klucel (hydroxypropylcellulose) (HPC)",98 % of control
same,T/C,[1],114 % of control
same,T/C,"dose: 133.0 mg/kg/injection, schedule: Q04DX003 (ip), vehicle: Klucel (hydroxypropylcellulose) (HPC)",118 % of control
Cn1c(N)c(N=Cc2ccc(C=Nc3c(N)n(C)c(=O)n(C)c3=O)cc2)c(=O)n(C)c1=O,T/C,"dose: 50.0 mg/kg/injection, schedule: Q01DX001 (ip), vehicle: carboxymethylcellulose (CMC)",88 % of control
same,T/C,[2],96 % of control
same,T/C,[3],90 % of control
CCCCN1C(=O)c2ccccc2C1=O,T/C,"dose: 100.0 mg/kg/injection, schedule: Q04DX003 (ip), vehicle: carboxymethylcellulose (CMC)",102 % of control
same,T/C,"dose: 200.0 mg/kg/injection, schedule: Q04DX003 (ip), vehicle: carboxymethylcellulose (CMC)",93 % of control
same,T/C,"dose: 400.0 mg/kg/injection, schedule: Q04DX003 (ip), vehicle: carboxymethylcellulose (CMC)",101 % of control
C=CC[P+](Cc1cccc(C)c1)(c1ccccc1)c1ccccc1,T/C,"dose: 6.25 mg/kg/injection, schedule: Q01DX009 (ip), vehicle: saline with Tween-80",107 % of control
same,T/C,"dose: 12.5 mg/kg/injection, schedule: Q01DX009 (ip), vehicle: saline with Tween-80",115 % of control
Oc1cccc2cccnc12,T/C,[4],100 % of control
same,T/C,[3],96 % of control
CCOC(=O)C(C(=O)OCC)C(C)(C)Cc1ccccc1,T/C,[5],92 % of control
same,T/C,[6],100 % of control
same,T/C,[7],96 % of control
same,T/C,[8],93 % of control
same,T/C,[9],93 % of control
CSc1ccccc1C1CCCCCC1OS(=O)(=O)c1ccc(C)cc1 (stereo not drawn),T/C,"dose: 15.0 mg/kg/injection, schedule: Q01DX001 (ip), vehicle: carboxymethylcellulose (CMC)",96 % of control
same,T/C,"dose: 30.0 mg/kg/injection, schedule: Q01DX001 (ip), vehicle: carboxymethylcellulose (CMC)",102 % of control
O=C(Nc1ccc(Cl)c(Cl)c1)Oc1ccc(-c2ccccc2)cc1,T/C,[5],93 % of control
same,T/C,[1],87 % of control
same,T/C,[6],100 % of control
same,T/C,[7],92 % of control
same,T/C,[8],90 % of control
same,T/C,[9],88 % of control
O=C(O)CCCCCN1C(=O)CCC1=O,T/C,"dose: 75.0 mg/kg/injection, schedule: Q04DX003 (ip), vehicle: saline",95 % of control
same,T/C,"dose: 150.0 mg/kg/injection, schedule: Q04DX003 (ip), vehicle: saline",103 % of control
same,T/C,"dose: 300.0 mg/kg/injection, schedule: Q04DX003 (ip), vehicle: saline",92 % of control
COc1ccc(C(C)=O)cc1CCC=O,T/C,[4],97 % of control
same,T/C,[2],97 % of control
same,T/C,[3],97 % of control
